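Method: 48-hour compound exposure of cells in 96-well plates, five concentrations, linear interpolation of endpoints. TGI: concentration producing complete growth inhibition.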
What was measured:
Assay in all cases: DTP human tumour cell line panel, 48 h
[1] = tested on: EKVX NSCLC
[2] = tested on: K-562 leukemia
[3] = tested on: OVCAR-8 ovarian
[4] = tested on: OVCAR-3 ovarian
[5] = tested on: SF-539 CNS
[6] = tested on: MDA-MB-231 breast
[7] = tested on: NCI-H226 lung
[8] = tested on: SF-268 CNS
[9] = tested on: HS 578T breast
[10] = tested on: HOP-92 NSCLC
[11] = tested on: HL-60(TB) leukemia
[12] = tested on: U251 CNS
[13] = tested on: BT-549 breast
[14] = tested on: MOLT-4 leukemia
[15] = tested on: UACC-62 melanoma
[16] = tested on: SK-MEL-5 melanoma
[17] = tested on: T-47D breast
[18] = tested on: SK-MEL-28 melanoma
[19] = tested on: HCT-15 colon
[20] = tested on: OVCAR-5 ovarian
[21] = tested on: RPMI-8226 leukemia
[22] = tested on: DU-145 prostate
[23] = tested on: MALME-3M melanoma
[24] = tested on: NCI-H522 lung
[25] = tested on: A549 NSCLC
[26] = tested on: COLO 205 colon
[27] = tested on: CCRF-CEM leukemia
[28] = tested on: M14 melanoma
[29] = tested on: SF-295 CNS
[30] = tested on: UACC-257 melanoma
[31] = tested on: MCF7 breast
[32] = tested on: OVCAR-4 ovarian
[33] = tested on: ACHN renal
[34] = tested on: IGROV1 ovarian
[35] = tested on: HCT-116 colon
[36] = tested on: RXF 393 renal
[37] = tested on: HOP-62 NSCLC
[38] = tested on: 786-0 renal
[39] = tested on: UO-31 renal
[40] = tested on: SN12C renal
[41] = tested on: LOX IMVI melanoma
[42] = tested on: MDA-MB-435
[43] = tested on: SR leukemia
[44] = tested on: MDA-N
[45] = tested on: SNB-75 CNS
[46] = tested on: TK-10 renal
[47] = tested on: NCI-H23 lung
[48] = tested on: SK-MEL-2 melanoma
[49] = tested on: HT29 colon
[50] = tested on: SNB-19 CNS
[51] = tested on: SK-OV-3 ovarian
[52] = tested on: PC-3 prostate
[53] = tested on: NCI/ADR-RES ovarian
[54] = tested on: CAKI-1 renal
[55] = tested on: A498 renal
[56] = tested on: KM12 colon
[57] = tested on: NCI-H460 lung
[58] = tested on: SW-620 colon
[59] = tested on: HCC-2998 colon

Measured: TGI

C=C(Br)CN=CN(C)C
> 100 µM: [1] | [2] | [3] | [4] | [5] | [6] | [7] | [8] | [9] | [10] | [11] | [12] | [13] | [14] | [15] | [16] | [17] | [18] | [19] | [20] | [21] | [22] | [23] | [24] | [25] | [26] | [27] | [28] | [29] | [30] | [31] | [32] | [33] | [34] | [35] | [36] | [37] | [38] | [39] | [40] | [41] | [42] | [43] | [44] | [45] | [46] | [47] | [48] | [49] | [50] | [51] | [52] | [53] | [54] | [55]

COC1CC(C)(NC(=O)C(F)(F)F)C2OC(c3ccccc3)OCC2O1 (centres undefined)
> 100 µM: [1] | [2] | [3] | [4] | [5] | [6] | [7] | [8] | [9] | [10] | [11] | [12] | [13] | [14] | [15] | [16] | [56] | [17] | [18] | [19] | [20] | [21] | [22] | [23] | [24] | [25] | [26] | [27] | [28] | [29] | [30] | [31] | [32] | [33] | [57] | [34] | [35] | [36] | [37] | [38] | [39] | [40] | [41] | [42] | [43] | [44] | [45] | [46] | [47] | [49] | [50] | [51] | [52] | [53] | [54] | [55] | [58]

COc1cc2c(cc1OC)C(=O)N(c1ccc(OCCN3CCCC3)cc1)C2
> 100 µM: [1] | [2] | [3] | [4] | [5] | [6] | [7] | [8] | [59] | [9] | [10] | [11] | [12] | [13] | [14] | [15] | [16] | [56] | [17] | [18] | [19] | [20] | [21] | [22] | [23] | [24] | [25] | [26] | [27] | [28] | [29] | [30] | [31] | [32] | [33] | [57] | [34] | [35] | [36] | [37] | [38] | [40] | [41] | [42] | [43] | [44] | [46] | [47] | [48] | [49] | [50] | [51] | [52] | [53] | [54] | [55] | [58]
